Assay [1] has as its system HIV-1 LAI. Put plainly: Inhibition of HIV replication (p24 level) in human peripheral blood mononuclear cells infected in vitro, Example 1. In kind it is cell-based. Conditions: Human immunodeficiency virus 1, PBMC; 1000 nM added 24 hours before infection; day 7; read-out: inhibition of HIV replication (p24 in supernatant). Here is the method:
The assessment of antiretroviral activity of ultra low-dose of rabbit polyclonal antibodies to CD4 receptor (a mixture of homoeopathic dilutions C12+C30+C50) (ULD Ab CD4)), was carried out using human peripheral blood mononuclear cells infected with the strain HIV-1 LAI in vitro.
Human peripheral blood mononuclear cells were isolated from blood of a seronegative healthy donor by centrifugation on a Ficoll-Hypaque density gradient. The cells were stimulated for 3 days with 1 μg/mL of phytohemagglutinin P and 5 IU/mL of recombinant human interleukin-2.
In order to assess antiretroviral activity the products were placed in a well containing 100 μL of activated mononuclears 24 hours before or 15 min after cell infection with the strain HIV-1-LAI at the dose of 100 TCID50 (50 μL inoculum of the strain HIV-1-LAI). Before adding to a well, ULD Ab CD4 (12.5 μL) or reference azidotimidine (1000 nM) were mixed with RPMI1640 medium (DIFCO) to achieve a final probe volume of 50 μL
The supernatant fluids were collected on day 7 after infection of cells. The products' activity was measured by the inhibition of HIV replication which was assessed by the level of core nucleocapsid protein p24 in the supernatant fluid from human peripheral blood mononuclear cells using Retrotek Elisa kit.

Assay [2] deals with HIV-1 LAI. Put plainly: Inhibition of HIV-reverse transcriptase activity in supernatant of infected human peripheral blood mononuclear cells, Example 2. In kind it is cell-based. The following applies: 8 nM; added 15-30 minutes after infection. Here is the method: The assessment of antiretroviral activity of ultra low-dose rabbit polyclonal antibodies to CD4 (a mixture of homoeopathic dilutions C12+C30+C50) (hereinafter referred to as “ultra low-dose antibodies to CD4) was carried out using human peripheral blood mononuclear cells infected with the strain HIV-1 LAI in vitro. Azidothymidine (Sigma—AZ169-100 mg, lot 107K1578) was used as a comparator product.
Human peripheral blood mononuclear cells were isolated from blood of a seronegative healthy donor by centrifugation on a Ficoll-Hypaque density gradient. The cells were stimulated for 3 days with 1 μg/mL of phytohemagglutinin P and 5 IU/mL of recombinant human interleukin-2 in RPMI1640 (DIFCO) medium supplemented with 10% fetal calf serum (the complement was removed by heating for 45 minutes at 56° C.), 1% antibiotic solution (PSN Gibco containing 50 μg/mL of penicillin, 50 μg/mL of streptomycin and 100 μg/mL of neomycin). […]
The products' efficiency was established by the inhibition of HIV replication which was assessed by HIV-reverse transcriptase activity in the supernatant fluid from human peripheral blood mononuclear cells using the HIV RT RetroSys kit made by INNOVAGEN (Lot 10-059C). […]

The test system of another assay is HIV-strain-1-LAI. Put plainly: Inhibition of HIV replication (p24 content) in infected mononuclear cells of human blood, Example 3. Conditions: 1000 nM, day 7, read-out: inhibition of HIV reaction (p24 in supernatant). It is filed as cell-based, HIV-1.

Like-named read-outs stand apart in the source and are kept apart here.

Text for HIV-strain-1-LAI: The experimental study involved the affine purified rabbit polyclonal antibodies to the human IFN-gamma. The affine purified rabbit polyclonal antibodies to the human gamma interferon were used for development of the (potentiated) antibodies to the gamma interferon in a very-low-dose in the form of serial dilutions C12+C30+C50, obtained in accordance with a homeopathic technology (hereinafter referred to as Ab to IFN-γ in VLD).
Antiviral activity of the composition under review Ab to IFN-γ in VLD and azidothymidine (preparation, based on an active substance of Zidovudine) was studied within the context of mononuclear cells of the human blood, infected in vitro with the HIV-strain-1-LAI. The efficiency of replicating inhibition of HIV was assessed according to the content of a main nucleocapsid protein p24 HIV in the supernatant fluid of the mononuclear cells of the human peripheral blood. […]
Supernatant fluid of the cell culture was collected on the seventh (7) day subsequent to the contamination. The efficiency of the preparations was assessed according to the inhibition of HIV reaction, in its turn assessed in accordance with the content of a main nucleocapsid protein p24 HIV in the supernatant cells by method of IFA, immunofluorescent assay (Retrotek Elisa kit).

For the compound `Cc1cn([C@H]2C[C@H](N=[N+]=[N-])[C@@H](CO)O2)c(=O)[nH]c1=O` [Azidothymidine], the inhibition at 1 µM with HIV-1 LAI [1] was 99%; with HIV-strain-1-LAI (Human immunodeficiency virus 1, 168 h, introduced 24 prior to contamination), 99%; in the assay on HIV-strain-1-LAI (Human immunodeficiency virus 1, introduced 15 minutes after contamination), 99 ± 1%. The “Inhibition of HIV-reverse transcriptase activity (% of control) Day 7” value with HIV-1 LAI [2] is 58 ± 7 % of control.
